Data as given in PubChem BioAssay AID1918995 (Molecular Pharmacology Branch, DTP, NCI, 2023).

System: 324938-238-R-J1-PDC complex spheroid growth, % test/control
Test: Anticancer human tumor 324938-238-R-J1-PDC patient-derived bladder carcinoma cell line growth inhibition [AhR]
Settings: for IC50: curve of first compound; for viability, T/C: stronger effect = lower value
Procedure, shortened: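 Agents were dosed in half-log steps down from roughly clinical Cmax, or from 10 microM where Cmax was unknown, alone and with AhR antagonists. Read-out: percent test/control growth of tumor spheroids containing HUVEC and MSC stromal cells.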

[1] = second compound 0.1 µM, first compound 0.0316 µM
[2] = second compound 0.1 µM, first compound 0.1 µM
[3] = second compound 0.316 µM, first compound 0.0316 µM
[4] = second compound 0.316 µM, first compound 0.1 µM
[5] = second compound 1 µM, first compound 0.0316 µM
[6] = second compound 1 µM, first compound 0.1 µM
[7] = second compound 3.16 µM, first compound 0.0316 µM
[8] = second compound 3.16 µM, first compound 0.1 µM
[9] = second compound 10 µM, first compound 0.0316 µM
[10] = second compound 10 µM, first compound 0.1 µM
[11] = second compound 0.1 µM, first compound 0.316 µM
[12] = second compound 0.1 µM, first compound 1 µM
[13] = second compound 0.1 µM, first compound 3.16 µM
[14] = second compound 0.1 µM, first compound 10 µM
[15] = second compound 0.316 µM, first compound 0.316 µM
[16] = second compound 0.316 µM, first compound 1 µM
[17] = second compound 0.316 µM, first compound 3.16 µM
[18] = second compound 0.316 µM, first compound 10 µM
[19] = second compound 1 µM, first compound 0.316 µM
[20] = second compound 1 µM, first compound 1 µM
[21] = second compound 1 µM, first compound 3.16 µM
[22] = second compound 1 µM, first compound 10 µM
[23] = second compound 3.16 µM, first compound 0.316 µM
[24] = second compound 3.16 µM, first compound 1 µM
[25] = second compound 3.16 µM, first compound 3.16 µM
[26] = second compound 3.16 µM, first compound 10 µM
[27] = second compound 10 µM, first compound 0.316 µM
[28] = second compound 10 µM, first compound 1 µM
[29] = second compound 10 µM, first compound 3.16 µM
[30] = second compound 10 µM, first compound 10 µM
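Also: spheroids exposed to agents for seven days before viability read.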

| SMILES | IC50 (second compound 0.1 µM) [µM] | IC50 (second compound 0.316 µM) [µM] | IC50 (second compound 1 µM) [µM] | IC50 (second compound 3.16 µM) [µM] | IC50 (second compound 10 µM) [µM] | viability, T/C [1] [%] | viability, T/C [2] [%] | viability, T/C [3] [%] | viability, T/C [4] [%] | viability, T/C [5] [%] | viability, T/C [6] [%] | viability, T/C [7] [%] | viability, T/C [8] [%] | viability, T/C [9] [%] | viability, T/C [10] [%] | viability, T/C [11] [%] | viability, T/C [12] [%] | viability, T/C [13] [%] | viability, T/C [14] [%] | viability, T/C [15] [%] | further results |
| --- | --- | --- | --- | --- | --- | --- | --- | --- | --- | --- | --- | --- | --- | --- | --- | --- | --- | --- | --- | --- | --- |
| CC[C@@]1(O)C(=O)OCc2c1cc1n(c2=O)Cc2cc3c(CN(C)C)c(O)ccc3nc2-1 + Cc1cncc(-c2nc(NCCc3c[nH]c4ccccc34)c3ncn(C(C)C)c3n2)c1 | > 0.1 | > 0.1 | > 0.1 | > 0.1 | < 0.000316 | 83.3 | 102 | 77.8 | 93.5 | 87.6 | 96.9 | 79 | 79.4 | 3.79 | 10.3 |  |  |  |  |  | viability, T/C (second compound 0.1 µM, first compound 0.000316 µM): 108%; viability, T/C (second compound 0.1 µM, first compound 0.001 µM): 151%; viability, T/C (second compound 0.1 µM, first compound 0.00316 µM): 99.7%; viability, T/C (second compound 0.1 µM, first compound 0.01 µM): 117%; viability, T/C (second compound 0.316 µM, first compound 0.000316 µM): 70.6%; viability, T/C (second compound 0.316 µM, first compound 0.001 µM): 91.9%; viability, T/C (second compound 0.316 µM, first compound 0.00316 µM): 124%; viability, T/C (second compound 0.316 µM, first compound 0.01 µM): 93.2%; viability, T/C (second compound 1 µM, first compound 0.000316 µM): 116%; viability, T/C (second compound 1 µM, first compound 0.001 µM): 110%; viability, T/C (second compound 1 µM, first compound 0.00316 µM): 114%; viability, T/C (second compound 1 µM, first compound 0.01 µM): 93.4%; viability, T/C (second compound 3.16 µM, first compound 0.000316 µM): 97.8%; viability, T/C (second compound 3.16 µM, first compound 0.001 µM): 71.7%; viability, T/C (second compound 3.16 µM, first compound 0.00316 µM): 87.3%; viability, T/C (second compound 3.16 µM, first compound 0.01 µM): 90.9%; viability, T/C (second compound 10 µM, first compound 0.000316 µM): 5.23%; viability, T/C (second compound 10 µM, first compound 0.001 µM): 3.61%; viability, T/C (second compound 10 µM, first compound 0.00316 µM): 4.43%; viability, T/C (second compound 10 µM, first compound 0.01 µM): 3.43% |
| COc1cc(C2c3cc4c(cc3C(OC3OC5COC(C)OC5C(O)C3O)C3COC(=O)C23)OCO4)cc(OC)c1O (stereo not given) + Cc1cncc(-c2nc(NCCc3c[nH]c4ccccc34)c3ncn(C(C)C)c3n2)c1 | > 10 | > 10 | > 10 | > 10 | < 0.0316 | 104 | 113 | 109 | 128 | 126 | 102 | 86 | 95.2 | 3.73 | 10.1 | 96.8 | 126 | 106 | 123 | 109 | viability, T/C [16]: 87.2%; viability, T/C [17]: 95.1%; viability, T/C [18]: 87.8%; viability, T/C [19]: 84.9%; viability, T/C [20]: 107%; viability, T/C [21]: 103%; viability, T/C [22]: 106%; viability, T/C [23]: 94.2%; viability, T/C [24]: 81.8%; viability, T/C [25]: 106%; viability, T/C [26]: 81.6%; viability, T/C [27]: 6.66%; viability, T/C [28]: 4%; viability, T/C [29]: 6.93%; viability, T/C [30]: 15% |
| Nc1ccn(C2OC(CO)C(O)C2(F)F)c(=O)n1 (stereo not given) + Cc1cncc(-c2nc(NCCc3c[nH]c4ccccc34)c3ncn(C(C)C)c3n2)c1 | > 10 | > 10 | > 10 | > 10 | < 0.0316 | 105 | 81.5 | 79.4 | 61.6 | 95.1 | 65.9 | 95.2 | 74.3 | 45.5 | 53.7 | 88.5 | 51.6 | 83.9 | 84.1 | 79.2 | viability, T/C [16]: 87.2%; viability, T/C [17]: 93.3%; viability, T/C [18]: 111%; viability, T/C [19]: 79.8%; viability, T/C [20]: 84.1%; viability, T/C [21]: 69.6%; viability, T/C [22]: 84.5%; viability, T/C [23]: 119%; viability, T/C [24]: 84.3%; viability, T/C [25]: 120%; viability, T/C [26]: 72.5%; viability, T/C [27]: 49.7%; viability, T/C [28]: 49.3%; viability, T/C [29]: 62.2%; viability, T/C [30]: 62.7% |
